Data as given in patent US12509460B2 (Skyhawk Therapeutics, Inc., priority 2019, dated 2025).
Like-named read-outs stand apart in the source and are kept apart here.

What was measured:
[1] = test system: mHTT protein in GM04724 (CAG 70/20) Huntington's disease patient lymphoblast cells; assay: mHTT protein assay, 2B7-MW1 assay via Mesoscale Discovery (MSD); type: cell-based, human
Method: Example A10: mHTT Protein Assay
Compounds are tested on GM04724 (CAG 70/20) Huntington's disease patient lymphoblast cells at doses ranging from 10 μM to 0.6 nM. 4,500 cells/well are seeded in 384 well plates. One plate replica is carried out for parallel viability testing by CellTiter Glo (CTG). Compounds are incubated for 48 hours. mHTT protein levels are assessed by the 2B7-MW1 assay via Mesoscale Discovery (MSD) as previously reported (Macdonald et al., 2014). The antibody pair is comprised of previously characterized monoclonals (2B7 and MW1) interrogating two regions for HTT conformation and biological properties: the N, 17 domain and the polyQ domain (Baldo et al., 2012; Ko et., 2001). 2B7-MW1 is […] specific levels of HTT at the time of treatment. 2B7-MW1 is dependent on polyQ expansion (e.g., the higher the expansion the higher the signal) and on mHTT size (e.g., a similar polyQ will give higher signal with smaller HTT size). The viability readout is carried out by CTG according to the manufacturer's instructions.

[2] = test system: SMN FL and SMN Δ7 in spinal muscular atrophy (SMA) patient fibroblasts (GM03813, Coriell); assay: Quantitative splicing assay (SMN), qPCR; type: cell-based, human; settings: Homo sapiens, Fibroblast, 24 h, read-out: SMN2 Splicing FL EC50
Method: Spinal muscular atrophy (SMA) patient fibroblasts (GM03813, Coriell) are plated in 96-well plates at 50,000 cells/well. […] Treated cells are lysed and cDNA synthesized using the Fast Advanced Cells-to-Ct kit (Thermofisher A35378) according to the manufacturer's instructions. 2 μL of each cDNA are used in qPCR reactions. […] Reactions are run in a Quant Studio 6 qPCR instrument with default settings.

[3] = test system: SMN protein in spinal muscular atrophy (SMA) patient fibroblasts (GM03813, Coriell); assay: SMN protein assay, Mesoscale Discovery (MSD); type: cell-based, human; settings: read-out: SMN2 protein EC50
Method: Example A12: SMN Protein Assay
Compounds are tested on spinal muscular atrophy (SMA) patient fibroblasts (GM03813, Coriell) at doses ranging from 2.5 μM to 0.6 nM. 7000 cells/well are seeded in 96-well plates. Compounds are incubated for 48 hours and the cells were lysed with 100 μL of lysis buffer. 20 μL of lysate is used for SMN protein measurement by Mesoscale Discovery (MSD) assay developed by PharmOptima (Michigan). A standard curve prepared with SMN protein ranging from 1 μg/ml to 19.5 pg/ml is used in each MSD plate to calculate the absolute SMN protein amount in each sample.

MDR1 = assay: Blood-brain-barrier (BBB) penetration potential via MDCK-MDR1 permeability assay; settings: dog, MDCK-MDR1, pH 7.4, MDCK-MDR1: Efflux
[4] = test system: MDR1-MDCK cell monolayers; assay: as above
MDR1 (P-gp) = assay: as above; settings: dog; for Papp A→B at 120 min, 5 μM: MDCK-MDR1, pH 7.4, MDCK-MDR1: Papp A-B; for Papp B→A at 120 min, 5 μM: MDCK-MDR1, pH 7.4, MDCK-MDR1: Papp B-A
[5] = GM04724 Huntington's disease patient lymphoblasts
[6] = SMA patient fibroblasts GM03813, 24 h, qPCR
[7] = SMA patient fibroblasts GM03813, 48 hours, MSD
[8] = GM04724 (CAG 70/20) Huntington's disease patient lymphoblasts
[9] = SMA patient fibroblasts (GM03813)
[10] = SMA patient fibroblasts (GM03813), 48 hours

SMILES | EC50 [1, 5] [nM] | EC50 [2, 6] [nM] | EC50 [3, 7] [nM] | efflux ratio at 120 min, 5 μM (MDR1; efflux ratio) | MDCK-MDR1: % Recov A-B ([4]; A-B direction) [%] | MDCK-MDR1: % Recov B-A ([4]; B-A direction) [%] | Papp A→B at 120 min, 5 μM (MDR1 (P-gp); A-B direction) [×10⁻⁶ cm/s] | Papp B→A at 120 min, 5 μM (MDR1 (P-gp); B-A direction) [×10⁻⁶ cm/s] | mHTT protein EC50 [1, 8] | EC50 [2, 9] [nM] | EC50 [3, 10] [nM] | efflux ratio at 120 min, 5 μM (MDR1) | MDCK-MDR1: % Recov A-B ([4]; A-B) [%] | MDCK-MDR1: % Recov B-A ([4]; B-A) [%] | Papp A→B at 120 min, 5 μM (MDR1 (P-gp); A-B) [×10⁻⁶ cm/s] | Papp B→A at 120 min, 5 μM (MDR1 (P-gp); B-A) [×10⁻⁶ cm/s] | EC50 [1, 8] [nM]
CN(c1ccc(-c2ccc(-c3ccccn3)cc2O)nn1)[C@@H]1C[C@H]2CCC[C@H](N2)[C@@H]1F [Compound 23A, 2-(6-(((1S,2S,3R,5R)-2-fluoro-9-azabicyclo[3.3.1]nonan-3-yl)(methyl)amino)pyridazin-3-yl)-5-(pyridin-2-yl)phenol] | 51 to 100 | 51 to 100 | 16 to 50 | 10 | 64 | 83 | 3.33 | 34.9 | – | – | – | – | – | – | – | – | –
CN(c1ccc(-c2cc3oc(C(=O)N4CCC4)cc3cc2O)nn1)[C@H]1C[C@@H]2CC[C@H]([C@H]1F)N2C [Compound 107B, azetidin-1-yl(6-(6-(((1R,2R,3S,5S)-2-fluoro-8-methyl-8-azabicyclo[3.2.1]octan-3-yl)(methyl)amino)pyridazin-3-yl)-5-hydroxybenzofuran-2-yl)methanone] | – | – | – | – | – | – | – | – | E (501 ≤ E ≤ 10.000) | 101 to 500 | 16 to 50 | 47 | 76 | 84 | 0.99 | 46.3 | –
CN(c1ccc(-c2ccc(-n3cnc(C#N)c3)cc2O)nn1)[C@@H]1C[C@H]2CCC[C@H](N2)[C@@H]1F [Compound 63A, 1-(4-(6-(((1S,2S,3R,5R)-2-fluoro-9-azabicyclo[3.3.1]nonan-3-yl)(methyl)amino)pyridazin-3-yl)-3-hydroxyphenyl)-1H-imidazole-4-carbonitrile] | 51 to 100 | 16 to 50 | 0.01 to 15 | 31 | 76 | 91 | 1.5 | 46 | – | – | – | – | – | – | – | – | –
CN(C)C(=O)c1cc2cc(O)c(-c3ccc(N(C)[C@H]4C[C@@H]5CC[C@@H](N5)[C@H]4F)nn3)cc2o1 [Compound 9B, 6-(6-(((1R,2R,3S,5S)-2-fluoro-8-azabicyclo[3.2.1]octan-3-yl)(methyl)amino)pyridazin-3-yl)-5-hydroxy-N,N-dimethylbenzofuran-2-carboxamide] | 101 to 500 | 101 to 500 | 16 to 50 | 78 | 88 | 100 | 0.62 | 48.2 | – | – | – | – | – | – | – | – | –
CN(c1ccc(-c2cc3ncn(C)c(=O)c3cc2O)nn1)[C@H]1C[C@@H]2CC[C@H]([C@H]1F)N2C [Compound 101B, 7-(6-(((1R,2R,3S,5S)-2-fluoro-8-methyl-8-azabicyclo[3.2.1]octan-3-yl)(methyl)amino)pyridazin-3-yl)-6-hydroxy-3-methylquinazolin-4(3H)-one] | – | – | – | – | – | – | – | – | – | 51 to 100 | 0.01 to 15 | 24 | 118 | 119 | 2.41 | 59.1 | 51 to 100
CN(c1ccc(-c2cc3oc(=O)n(C)c3cc2O)nn1)[C@H]1C[C@@H]2CC[C@@H](N2)[C@H]1F (single isomer, unassigned) [Compound 79B] | 51 to 100 | 101 to 500 | 16 to 50 | 16 | 90 | 99 | 2.69 | 42.9 | – | – | – | – | – | – | – | – | –
COc1cn(-c2ccc(-c3ccc(N(C)[C@@H]4C[C@H]5CC(F)(F)[C@@H](C4)N5)nn3)c(O)c2)cn1 [Compound 19A, 2-(6-(((1S,3R,5R)-6,6-difluoro-8-azabicyclo[3.2.1]octan-3-yl)(methyl)amino)pyridazin-3-yl)-5-(4-methoxy-1H-imidazol-1-yl)phenol] | 51 to 100 | 51 to 100 | 0.01 to 15 | 6 | 81 | 94 | 10.1 | 56.6 | – | – | – | – | – | – | – | – | –
Cc1ccc(-c2ccc(-c3ccc(N(C)[C@@H]4C[C@H]5CC[C@H](N5)[C@@H]4F)nn3)c(O)c2)nn1 (single isomer, unassigned) [Compound 25A] | 101 to 500 | 101 to 500 | 0.01 to 15 | 31 | 99 | 99 | 1.79 | 55 | – | – | – | – | – | – | – | – | –
CN(c1ccc(-c2ccc(-n3ccnn3)cc2O)nn1)[C@@H]1C[C@H]2CC[C@H](N2)[C@@H]1F [Compound 61A, 2-(6-(((1S,2S,3R,5R)-2-fluoro-8-azabicyclo[3.2.1]octan-3-yl)(methyl)amino)pyridazin-3-yl)-5-(1H-1,2,3-triazol-1-yl)phenol] | 16 to 50 | 16 to 50 | 0.01 to 15 | 14 | 91 | 88 | 4.29 | 60.3 | – | – | – | – | – | – | – | – | –
CN(c1ccc(-c2ccc(-n3cnc(C#N)c3)cc2O)nn1)[C@H]1C[C@@H]2CC[C@@H](N2)[C@H]1F [Compound 69B, 1-(4-(6-(((1R,2R,3S,5S)-2-fluoro-8-azabicyclo[3.2.1]octan-3-yl)(methyl)amino)pyridazin-3-yl)-3-hydroxyphenyl)-1H-imidazole-4-carbonitrile] | 16 to 50 | 51 to 100 | 0.01 to 15 | 35 | 88 | 90 | 1.51 | 52.3 | – | – | – | – | – | – | – | – | –
CN(c1ccc(-c2ccc(-n3ccnc3)cc2O)nn1)[C@@H]1C[C@H]2CCC[C@H](N2)[C@@H]1F [Compound 11A, 2-(6-(((1S,2S,3R,5R)-2-fluoro-9-azabicyclo[3.3.1]nonan-3-yl)(methyl)amino)pyridazin-3-yl)-5-(1H-imidazol-1-yl)phenol] | 0.01 to 15 | 51 to 100 | 0.01 to 15 | 19 | 79 | 90 | 2.76 | 53.2 | – | – | – | – | – | – | – | – | –
CN(c1ccc(-c2cc3c(F)cn(C)c(=O)c3cc2O)nn1)[C@@H]1C[C@H]2CC[C@H](N2)[C@@H]1F [Compound 54A, 4-fluoro-6-(6-(((1S,2S,3R,5R)-2-fluoro-8-azabicyclo[3.2.1]octan-3-yl)(methyl)amino)pyridazin-3-yl)-7-hydroxy-2-methylisoquinolin-1(2H)-one] | – | 16 to 50 | 0.01 to 15 | 23 | 108 | 115 | 3.54 | 82.6 | – | – | – | – | – | – | – | – | –
CN(c1ccc(-c2cc3c(F)cn(C)c(=O)c3cc2O)nn1)[C@H]1C[C@@H]2CC[C@@H](N2)[C@H]1F [Compound 54B, 4-fluoro-6-(6-(((1R,2R,3S,5S)-2-fluoro-8-azabicyclo[3.2.1]octan-3-yl)(methyl)amino)pyridazin-3-yl)-7-hydroxy-2-methylisoquinolin-1(2H)-one] | – | 0.01 to 15 | 0.01 to 15 | 27 | 99 | 107 | 2.28 | 61.5 | – | – | – | – | – | – | – | – | –
